Laboratory results published in US20240252520A1 (priority 2023, published 2024).
Entries after “also recorded” stand apart in the source; their conditions may differ.

Legend:
fibroblasts [1] = assay: Alamar Blue assay of fibroblast metabolic activity; type: cell-based, human; conditions: over three days after treatment
From the text: (§1) This concentration was selected for all subsequent experiments (FIG. 24A).
Following the in silico prioritization of metrifonate as a key compound in promoting wound healing, we determined if addition of metrifonate influenced key cell functions in tissue cultures of cells that are implicated in wound healing, such as fibroblasts, keratinocytes and macrophages.
In a further example, an alamarBlue™ Assay can be used as follows: Human dermal fibroblasts (immortalized cell line, abm Cat. No. T0904) are cultured in complete medium (PriGrow III with 10% Fetal Bovine Serum, 100U/L penicillin, and 100 ug/L streptomycin) at 37° C. in 5% CO2. The cells are passaged every 7 days using 0.025% trypsin-ethylenediaminetetraacetic acid (Life Technologies) and plated at 10,000 cells per well in 96-well plates. […] Cell viability is determined by alarmarBlue™ (Invitrogen) after 48h, and 72h of incubation. Briefly, after 48 or 72h of incubation the media containing inhibitors is removed and replaced with 10% v/v alamarBlue™ in complete media and the plate is incubated at 37° C. for further 24 h. After this incubation period, plates are read at an excitation range of 540-570 nm and an emission range of 580-610 nm. All AchE inhibitors are expected to not negatively affect cell proliferation up to the concentration of 10 μg/ml.

keratinocytes [2] = assay: Wound healing scratch assay of keratinocytes with metrifonate; type: cell-based; conditions: 10 μg/ml, after 24 hours
Description: as §1
Keratinocyte HaCaT cells (ATCC) are cultured in complete medium (Dulbecco's Modified Eagle Medium with 10% Fetal Bovine Serum, 100U/L penicillin, and 100 ug/L streptomycin) at 37° C. in 5% CO2. The cells are passaged every 5 days using 0.025% trypsin-ethylenediaminetetraacetic acid (Life Technologies) detachment and plated at 100,000 cells per well in 24-well plates. The cell monolayer is scratched in a straight line using a P200 pipette tip. […] Images are taken immediately after the scratch (0 h), in 6 h, 12 h, 24 h, 48 h, and 72 h for at least four wells per condition. Scratch areas are analyzed using ImageJ/FIJI. At least three independent experiments are performed. All AchE inhibitors are expected to promote faster wound coverage up to the concentration of 10 μg/ml.

[3] = tested on: THP-1 derived macrophages; assay: Cytokine gene expression in THP-1 derived macrophages polarized to M0, M1, M2; type: cell-based, human
From the text: as §1

db/db mouse model [4] = assay: LD-Met gel in db/db mice, Day 5 and Day 10 wound analyses; type: in vivo; conditions: Day 5
[5] = target: T1, Acetylcholinesterase (AchE) (Mus musculus, UniProt P21836); assay: AchE activity in Day 5 mouse wound lysates; type: in vivo; conditions: Day 5, 2 days after bandage removal
T1 construct: measuring the levels of the enzyme on Day 5 in mouse wounds lysates; from tissue; host or cells: skin wound tissue lysate of db/db mice, Day 5 after wounding
T1 sequence (P21836 32-614): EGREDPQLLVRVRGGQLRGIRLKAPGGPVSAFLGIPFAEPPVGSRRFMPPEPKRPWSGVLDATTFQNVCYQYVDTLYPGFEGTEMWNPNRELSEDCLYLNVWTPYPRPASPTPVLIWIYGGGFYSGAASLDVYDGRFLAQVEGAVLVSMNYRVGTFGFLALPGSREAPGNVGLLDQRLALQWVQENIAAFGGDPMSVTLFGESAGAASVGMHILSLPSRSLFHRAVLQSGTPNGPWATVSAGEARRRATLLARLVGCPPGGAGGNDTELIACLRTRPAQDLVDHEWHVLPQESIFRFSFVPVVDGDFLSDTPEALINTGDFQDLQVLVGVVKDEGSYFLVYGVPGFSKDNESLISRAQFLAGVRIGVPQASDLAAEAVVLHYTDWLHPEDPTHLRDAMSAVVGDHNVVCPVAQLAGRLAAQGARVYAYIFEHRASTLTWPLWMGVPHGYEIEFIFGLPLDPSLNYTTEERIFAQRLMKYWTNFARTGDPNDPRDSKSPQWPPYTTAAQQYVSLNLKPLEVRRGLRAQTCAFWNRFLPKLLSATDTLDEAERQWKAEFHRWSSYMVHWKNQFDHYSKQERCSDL

diabetic humanized mice = assay: Metrifonate hydrogel on diabetic humanized mice wounds; type: in vivo, mouse
From the text: These genes are well known to improve impaired diabetic wound healing, see Berry-Kilgour et al., Advancements in the Delivery of Growth Factors and Cytokines for the Treatment of Cutaneous Wound Indications; Adv Wound Care (New Rochelle) 2021; 10(11):596-622. Epub 20201125. doi:10/1089?wound.2020.1183. PubMed PMID:33086946: PMCID: PMC8392095.
To generate a humanized skin graft mice model, Foxn1nu nude male mice of 6 weeks old can be used as the recipient animals. These mice are devoid of T cells and suffer from a lack of cell-mediated immunity making them a model of choice for xenograft studies. […] Following the sustained diabetic state period, wounds are inflicted on the transplanted human skin with a 3 mm punch biopsy, treatment options include the best two Metrifonate-Hydrogel dressings, previously determined by the mice and pig studies for the preferred two doses. […] Wound healing can be monitored using standardized photography daily during the course of 3, 5 and 10 days. […]
To generate a humanized skin graft mice model, Foxn1nu nude male mice of 6 weeks old can be used as the recipient animals. […] Following the sustained diabetic state period, wounds are inflicted on the transplanted human skin with a 3 mm punch biopsy, treatment options include the best two Metrifonate-Hydrogel dressings, previously determined by the mice and pig studies for the preferred two doses. […]

[6] = oral 30-60 mg daily up to 26 weeks; cited from earlier work
fibroblasts [7] = assay: Nicotinic and muscarinic receptor gene expression, fibroblasts; conditions: 48 hours
keratinocytes [8] = assay: Nicotinic and muscarinic receptor gene expression, keratinocytes; conditions: 48 hours
acute porcine wounds = assay: Metrifonate eluting dressings on acute porcine wounds over 20 days
[9] = tested on: THP-1 monocyte derived macrophages; assay: Nicotinic and muscarinic receptor gene expression, THP-1 monocyte derived macrophages; conditions: 48 hours
diabetic db/db mice = assay: LNP-FGF2, LNP-IL-2, LNP-CHI3L1, LNP-IL-17A mRNA bandages in db/db mice (Example 15); type: in vivo, mouse
Description: Two 6-mm punch biopsy full-thickness wounds were created on the dorsum of 16-week-old diabetic db/db mice (FIG. 19A). Macroporous bandages loaded with 4 μg of LNP-FGF2, LNP-IL-2, LNP-CHI3L1, and LNP-IL-17A mRNA were topically applied on the wounds for 10 days. […] The wound size was measured every three days.

db/db mouse model [10] = assay: Receptor agonists and antagonists on db/db mouse wounds, day 5 sacrifice; conditions: 2 mg/kg topically daily with blk-gel; Chrm1, Chrm3 or α7nAChR agonist

Compound: COP(=O)(OC)C(O)C(Cl)(Cl)Cl (stereo not shown) [metrifonate, (2,2,2-trichloro-1-hydroxyethyl) dimethylphosphonate]
- metrifonate concentration that began to negatively affect viability (fibroblasts [1]): over 10 μg/ml
- keratinocyte migration / scratch wound closure (keratinocytes [2]): significantly accelerate migration
- increase in IL10 gene expression ([3]; M0 macrophages): 30 fold
- downregulation of IL1b ([3]; M1 cells): 12 fold
- downregulation of TNF ([3]; M1 cells): 40 fold
- increase in IL10 gene expression ([3]; M2 macrophages): 10 fold
- total and degranulated mast cells (toluidine blue staining) (db/db mouse model [4]): enrichment of both total and degranulated mast cells
- Acetylcholinesterase (AchE) activity in wounds [5]: inhibits the activity of Acetylcholinesterase (AchE)
- wound healing (diabetic humanized mice; low dose hydrogel vs blank hydrogel, D0 to D7): improved wound healing
- expression of Il10, Arg and human gene VEGFA (RT-qPCR) (diabetic humanized mice; upon sacrifice): increased the expression
- clinical effect in mild-to-moderate Alzheimer's disease [6]: beneficial effect
- receptor gene expression (fibroblasts [7]): activation of CHRNA4; also recorded: increased expression of CHRNA4
- receptor gene expression (keratinocytes [8]): up-regulation of CHRM3 and CHRNB4 receptors
- adverse effects (acute porcine wounds): did not induce any adverse effects
- wound lengths in histological assessment (acute porcine wounds): shorter wound lengths
- receptor gene expression ([9]; M0 cells): activation of CHRM3 receptor; also recorded: up-regulation of CHRM3 receptor
- receptor gene expression ([9]; M1 cells): activation of CHRM4; also recorded: higher expression of CHRM4 and CHRNA3 receptors

Compound: CHI3L1 protein: bandages loaded with CHI3L1 protein employed as additional control
- wound healing during the whole period vs blank bandage (repeated measurement analysis) (diabetic db/db mice; 4 μg bandage, D0 to D10): no differences in wound healing
- wound reduction on Day 10 (diabetic db/db mice; Day 10, compared with blank): similar

Compound: C[N+](C)(C)CC#CCOC(=O)Nc1cccc(Cl)c1.[Cl-] [McN-A 343]
- effect of agonist on wound healing (db/db mouse model [10]): promoted the wound healing; also recorded: accelerated wound healing

Compound: LASSBIo0897
- effect of agonist on wound healing (db/db mouse model [10]): only the M1 agonist accelerated wound healing

Compound: O=C(N[C@H]1CN2CCC1CC2)c1ccc(Cl)cc1 [PNU-282987]
- effect of agonist on wound healing (db/db mouse model [10]): only the M1 agonist accelerated wound healing
